The supplement of paper PMC11061612

Key:
AZD7648 = compound: Cc1cc2ncnn2cc1Nc1ncc2c(n1)n(C1CCOCC1)c(=O)n2C [AZD7648]; conditions: max 10 µM
Procedure, shortened: (§1)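 After 24 hours at 37°C and 5% CO2 in 1536-well plates holding 7.5 μl of DMEM/F12 or RPMI with 10% FBS, cancer cell lines were dosed for 72 hours, with final DMSO typically 0.2%. Viability came from CellTiter-Glo 2.0 luminescence, scaled between the means of blank wells and DMSO wells. A non-linear mixed effects model fitted a two-parameter logistic curve to each dose response to give the single-agent IC50.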

AZD5991 = compound: Cc1c2c(nn1C)CSCc1cc(n(C)n1)CSc1cc(c3ccccc3c1)OCCCc1c(C(=O)O)n(C)c3c-2c(Cl)ccc13 [AZD5991]; conditions: max 1 µM
Procedure, shortened: as §1

Olaparib = compound: O=C(c1cc(Cc2n[nH]c(=O)c3ccccc23)ccc1F)N1CCN(C(=O)C2CC2)CC1 [Olaparib]; conditions: max 10 µM
Procedure, shortened: as §1

Dasatinib = compound: CC1=C(C(=CC=C1)Cl)NC(=O)C2=CN=C(S2)NC3=CC(=NC(=N3)C)N4CCN(CC4)CCO [Dasatinib]; conditions: max 2 µM
Procedure, shortened: as §1

Venetoclax = compound: CC1(C)CCC(CN2CCN(c3ccc(C(=O)NS(=O)(=O)c4ccc(NCC5CCOCC5)c([N+](=O)[O-])c4)c(Oc4cnc5[nH]ccc5c4)c3)CC2)=C(c2ccc(Cl)cc2)C1 [Venetoclax]; conditions: max 1 µM
Procedure, shortened: as §1

AZD1775 = compound: C=CCn1c(=O)c2cnc(Nc3ccc(N4CCN(C)CC4)cc3)nc2n1-c1cccc(C(C)(C)O)n1 [AZD1775]
Procedure, shortened: as §1

Trametinib = compound: CC(=O)Nc1cccc(-n2c(=O)n(C3CC3)c(=O)c3c(Nc4ccc(I)cc4F)n(C)c(=O)c(C)c32)c1 [Trametinib]; conditions: max 1 µM
Procedure, shortened: as §1

AZD6738 = compound: C[C@@H]1COCCN1C2=NC(=NC(=C2)C3(CC3)[S@](=N)(=O)C)C4=C5C=CNC5=NC=C4 [AZD6738]; conditions: max 10 µM
Procedure, shortened: as §1

AZD8186 = compound: C[C@@H](Nc1cc(F)cc(F)c1)c1cc(C(=O)N(C)C)cc2c(=O)cc(N3CCOCC3)oc12 [AZD8186]; conditions: max 3 µM
Procedure, shortened: as §1

AZD2811 = compound: CCN(CCO)CCCOc1ccc2c(Nc3cc(CC(=O)Nc4cccc(F)c4)[nH]n3)ncnc2c1 [AZD2811]; conditions: max 1 µM
Procedure, shortened: as §1

Alisertib = compound: COc1cc(Nc2ncc3c(n2)-c2ccc(Cl)cc2C(c2c(F)cccc2OC)=NC3)ccc1C(=O)O [Alisertib]; conditions: max 10 µM
Procedure, shortened: as §1

Palbociclib = compound: CC(=O)c1c(C)c2cnc(Nc3ccc(N4CCNCC4)cn3)nc2n(C2CCCC2)c1=O [Palbociclib]; conditions: max 10 µM
Procedure, shortened: as §1

Capivasertib = compound: C1CN(CCC1(C(=O)N[C@@H](CCO)C2=CC=C(C=C2)Cl)N)C3=NC=NC4=C3C=CN4 [Capivasertib]
Procedure, shortened: as §1

SN-38 = compound: CCc1c2c(nc3ccc(O)cc13)-c1cc3c(c(=O)n1C2)COC(=O)[C@]3(O)CC [SN-38]; conditions: max 0.3 µM
Procedure, shortened: as §1

Crizotinib = compound: C[C@@H](Oc1cc(-c2cnn(C3CCNCC3)c2)cnc1N)c1c(Cl)ccc(F)c1Cl [Crizotinib]; conditions: max 10 µM
Procedure, shortened: as §1

Taselisib = compound: Cc1nc(-c2cn3c(n2)-c2ccc(-c4cnn(C(C)(C)C(N)=O)c4)cc2OCC3)n(C(C)C)n1 [Taselisib]; conditions: max 10 µM
Procedure, shortened: as §1

SG3199 = compound: CC1=CN2[C@@H](C1)C=NC3=CC(=C(C=C3C2=O)OC)OCCCCCOC4=C(C=C5C(=C4)N=C[C@@H]6CC(=CN6C5=O)C)OC [SG3199]; conditions: max 0.001 µM
Procedure, shortened: as §1

Selumetinib = compound: Cn1cnc2c(F)c(Nc3ccc(Br)cc3Cl)c(C(=O)NOCCO)cc21 [Selumetinib]
Procedure, shortened: as §1

AZD1390 = compound: CC(C)n1c(=O)n(C)c2cnc3cc(F)c(-c4ccc(OCCCN5CCCCC5)nc4)cc3c21 [AZD1390]; conditions: max 0.3 µM
Procedure, shortened: as §1

AZD0156 = compound: CN(C)CCCOc1ccc(-c2ccc3ncc4c(c3c2)n(C2CCOCC2)c(=O)n4C)cn1 [AZD0156]
Procedure, shortened: as §1

AZD5153 = compound: COc1nnc2ccc(N3CCC(c4ccc(OCCN5CCN(C)C(=O)[C@H]5C)cc4)CC3)nn12 [AZD5153]; conditions: max 1 µM
Procedure, shortened: as §1

Gefitinib = compound: COc1cc2ncnc(Nc3ccc(F)c(Cl)c3)c2cc1OCCCN1CCOCC1 [Gefitinib]; conditions: max 10 µM
Procedure, shortened: as §1

Lapatinib = compound: CS(=O)(=O)CCNCc1ccc(-c2ccc3ncnc(Nc4ccc(OCc5cccc(F)c5)c(Cl)c4)c3c2)o1 [Lapatinib]; conditions: max 10 µM
Procedure, shortened: as §1

Savolitinib = compound: C[C@@H](c1ccc2nccn2c1)n1nnc2ncc(-c3cnn(C)c3)nc21 [Savolitinib]; conditions: max 1 µM
Procedure, shortened: as §1

Doxorubicin = compound: COc1cccc2c1C(=O)c1c(O)c3c(c(O)c1C2=O)C[C@@](O)(C(=O)CO)C[C@@H]3O[C@H]1C[C@H](N)[C@H](O)[C@H](C)O1 [Doxorubicin]; conditions: max 1 µM
Procedure, shortened: as §1

AZD4320 = compound: CN(CC[C@H](CSC1=CC=CC=C1)NC2=C(C=C(C=C2)S(=O)(=O)NC(=O)C3=CC=C(C=C3)N4CCC(CC4)[C@H](C5=CC=CC=C5C6=CC=C(C=C6)Cl)O)S(=O)(=O)C(F)(F)F)CCO [AZD4320]; conditions: max 1 µM
Procedure, shortened: as §1

Prexasertib = compound: COc1cccc(OCCCN)c1-c1cc(Nc2cnc(C#N)cn2)n[nH]1 [Prexasertib]; conditions: max 1 µM
Procedure, shortened: as §1

Cell Line	IC50, cell viability 72 h (AZD7648) [nM]	IC50, cell viability 72 h (AZD5991) [nM]	IC50, cell viability 72 h (Olaparib) [nM]	IC50, cell viability 72 h (Dasatinib) [nM]	IC50, cell viability 72 h (Venetoclax) [nM]	IC50, cell viability 72 h (AZD1775; max 3 µM) [nM]	IC50, cell viability 72 h (Trametinib) [nM]	IC50, cell viability 72 h (AZD6738) [nM]	IC50, cell viability 72 h (AZD8186) [nM]	IC50, cell viability 72 h (AZD2811) [nM]	IC50, cell viability 72 h (Alisertib) [nM]	IC50, cell viability 72 h (Palbociclib) [nM]	IC50, cell viability 72 h (Capivasertib; max 10 µM) [nM]	IC50, cell viability 72 h (SN-38) [nM]	IC50, cell viability 72 h (Crizotinib) [nM]	IC50, cell viability 72 h (Taselisib) [nM]	IC50, cell viability 72 h (SG3199) [nM]	IC50, cell viability 72 h (Selumetinib; max 10 µM) [nM]	IC50, cell viability 72 h (AZD1390) [nM]	IC50, cell viability 72 h (AZD0156; max 3 µM) [nM]	IC50, cell viability 72 h (AZD5153) [nM]	IC50, cell viability 72 h (Gefitinib) [nM]	IC50, cell viability 72 h (Lapatinib) [nM]	IC50, cell viability 72 h (Savolitinib) [nM]	IC50, cell viability 72 h (Doxorubicin) [nM]	IC50, cell viability 72 h (AZD4320) [nM]	IC50, cell viability 72 h (Prexasertib) [nM]	IC50, cell viability 72 h (AZD1775; max 1 µM) [nM]	IC50, cell viability 72 h (Capivasertib; max 3 µM) [nM]	IC50, cell viability 72 h (Selumetinib; max 3 µM) [nM]	IC50, cell viability 72 h (AZD0156; max 1 µM) [nM]
639-V (Bladder Carcinoma)	> 10000	> 1000	> 10000	1380	> 1000	2210	> 1000	> 10000	> 3000	> 1000	2980	> 10000	> 10000	3.66	> 10000	2460	> 1	> 10000	> 300	> 3000	257	> 10000	> 10000	> 1000	574	> 1000	948				
CAL-51 (Breast Carcinoma)	> 10000	> 1000	> 10000	> 2000	> 1000	583	> 1000	1510	> 3000	> 1000	6960	> 10000	4410	53	> 10000	1300	> 1	> 10000	> 300	> 3000	469	> 10000	> 10000	> 1000	415	> 1000	25.3				
CTB-1 (B-Cell Non-Hodgkin's Lymphoma)	> 10000	> 1000	> 10000		> 1000		> 1000	2010	> 3000	249	435			7.48		> 10000	> 1								248	> 1000	16.4	388	> 3000	> 3000	> 1000
HCC-15 (Squamous Cell Lung Carcinoma)	> 10000	> 1000	> 10000	> 2000	> 1000	1350	164	> 10000	> 3000	657	181	> 10000	> 10000	> 300	> 10000	> 10000	> 1	4440	> 300	> 3000	> 1000	> 10000	> 10000	> 1000	> 1000	216	> 1000				
